Data published in US11584714B2 (priority 2018, dated 2023).
Structures can show the parent of a compound that is named as a salt. Where two headings read alike, the source gives them in different places.

Tests used:
Format in all cases: biochemical
[1] = target: human α-thrombin (Homo sapiens (Human), UniProt P00734); experiment: Enzymatic assay for thrombin (Boc-VPR-AMC substrate)
[2] = test system: Lectin Pathway; experiment: Lectin pathway activation assay in human serum (mannan-coated ELISA, C3c detection); conditions: 1% human serum
[3] = target: MASP-2 (CCP1-CCP2-SP) (Homo sapiens (Human), UniProt O00187); experiment: biochemical
[4] = target: mMASP-2 (Mus musculus (Mouse), UniProt Q91WP0); experiment: Enzymatic inhibition of mMASP-2
[5] = selectivity for MASP-2 inhibition versus thrombin

Sequence of mMASP-2 (Q91WP0 20-685): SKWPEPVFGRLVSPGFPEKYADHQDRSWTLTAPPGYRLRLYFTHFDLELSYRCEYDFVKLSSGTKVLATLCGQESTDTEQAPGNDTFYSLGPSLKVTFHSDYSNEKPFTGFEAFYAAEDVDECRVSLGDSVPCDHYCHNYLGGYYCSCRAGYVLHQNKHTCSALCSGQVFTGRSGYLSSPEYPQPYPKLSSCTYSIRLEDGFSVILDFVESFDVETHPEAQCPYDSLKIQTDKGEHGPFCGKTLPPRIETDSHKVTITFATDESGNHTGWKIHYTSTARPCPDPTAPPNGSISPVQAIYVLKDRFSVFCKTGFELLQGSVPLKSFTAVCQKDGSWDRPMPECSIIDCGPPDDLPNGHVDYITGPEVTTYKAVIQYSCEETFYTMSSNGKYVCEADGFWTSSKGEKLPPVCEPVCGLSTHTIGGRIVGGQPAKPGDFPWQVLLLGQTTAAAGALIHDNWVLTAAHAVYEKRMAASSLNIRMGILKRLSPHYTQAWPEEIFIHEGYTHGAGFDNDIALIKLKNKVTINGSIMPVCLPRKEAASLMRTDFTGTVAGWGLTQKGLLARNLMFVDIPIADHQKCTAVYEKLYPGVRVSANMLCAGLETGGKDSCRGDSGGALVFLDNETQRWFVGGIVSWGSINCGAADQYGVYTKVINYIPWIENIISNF
Sequence of MASP-2 (CCP1-CCP2-SP) (O00187 445-686): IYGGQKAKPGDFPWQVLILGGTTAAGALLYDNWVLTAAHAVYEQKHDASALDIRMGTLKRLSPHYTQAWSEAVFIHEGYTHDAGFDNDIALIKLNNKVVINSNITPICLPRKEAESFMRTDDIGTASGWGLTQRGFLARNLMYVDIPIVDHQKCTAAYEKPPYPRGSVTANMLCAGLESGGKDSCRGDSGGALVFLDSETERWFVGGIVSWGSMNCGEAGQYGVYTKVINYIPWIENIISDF

| IC50 [2] [µM] | Structure (SMILES) | Ki ([1]; read-out: Thrombin Ki) [µM] | Ki ([3]; read-out: MASP-2 Ki) [µM] | MASP-2 vs. thrombin selectivity [3, 5] | Ki ([4]; read-out: mMASP-2 Ki) [µM] | also measured |
| --- | --- | --- | --- | --- | --- | --- |
| 5 to 50 | N=C(N)c1ccc(CNC(=O)[C@@H]2CCCCN2C(=O)[C@H](NCC(=O)O)C2CCCCC2)cc1 [compound 1127] | < 0.5 |  |  |  |  |
| > 50 | N=C(N)c1ccc(CNC(=O)[C@@H]2CCN2C(=O)[C@@H](Cc2ccccc2)NCC(=O)O)cc1 [compound 1109] | < 0.5 |  |  |  |  |
| 5 to 50 | CC(C)(C)[C@@H](NCC(=O)O)C(=O)N1CC[C@H]1C(=O)NCc1ccc(C(=N)N)cc1 [compound 1055] | < 0.5 |  |  |  |  |
| 5 to 50 | N=C(N)c1ccc(CNC(=O)[C@@H]2CCN2C(=O)[C@H](N)Cc2ccccc2)cc1 [compound 1023] | < 0.5 |  |  |  |  |
| 0.5 to 5 | C[C@H](NC(=O)[C@H]1Cc2ccccc2CN1)C(=O)NCc1ccc2c(N)nccc2c1 [compound 1053] |  |  |  |  |  |
| > 50 | N=C(N)c1ccc(CNC(=O)[C@@H]2CCN2C(=O)[C@@H](N)C2CCCCC2)cc1 [compound 1018] |  |  |  |  |  |
|  | C[C@H](NC(=O)c1nc(-c2ccccc2)cs1)C(=O)NCc1ccc(C(=N)N)cc1 [compound 1286, (S)—N-(1-((4-Carbamimidoylbenzyl)amino)-1-oxopropan-2-yl)-4-phenylthiazole-2-carboxamide] |  |  | −− (<1.0-fold) | < 0.5 | Ki [3]: 2.5 to 10 µM; Ki ([1]; Thrombin Ki (μM)): 0.5 to 2.5 µM |
|  | Cc1nc(N)ccc1CNC(=O)[C@H](C)NC(=O)[C@H]1C[C@H](Cc2ccccc2)CN1 [compound 1304, (2R,4S)—N—((S)-1-(((6-Amino-2-methylpyridin-3-yl)methyl)amino)-1-oxopropan-2-yl)-4-benzylpyrrolidine-2-carboxamide Dihydrochloride] |  | < 0.5 | *** (≥25 to <100-fold) | 0.5 to 2.5 | Ki ([1]; Thrombin Ki (μM)): 0.5 to 2.5 µM |
|  | CC(=O)O/N=C(\N)c1ccc(CNC(=O)[C@H](C)NC(=O)[C@H]2C[C@H](c3ccccc3)CN2)cc1 [compound 1264, (2R,4R)—N—((S)-1-((4-((Z)-N′-Acetoxycarbamimidoyl)benzyl)amino)-1-oxopropan-2-yl)-4-phenylpyrrolidine-2-carboxamide] | > 25 |  |  |  | Ki [3]: 2.5 to 10 µM; Ki [4]: 10 to 25 µM |
|  | Cc1nc2cc(CNC(=O)[C@H](C)NC(=O)[C@H]3C[C@H](c4ccccc4)CN3)cc(Cl)c2[nH]1 [compound 1418, (2R,4R)—N—((S)-1-(((7-Chloro-2-methyl-1H-benzo[d]imidazol-5-yl)methyl)amino)-1-oxopropan-2-yl)-4-phenylpyrrolidine-2-carboxamide Trifluoroacetate salt] | > 25 |  |  | 10 to 25 | Ki [3]: 2.5 to 10 µM |
|  | Cc1nc(N)ccc1CNC(=O)[C@H](C)NC(=O)[C@@H]1C[C@H](Cc2ccccc2)CCN1 [compound 1354, (2S,4R)—N—((S)-1-(((6-Amino-2-methylpyridin-3-yl)methyl)amino)-1-oxopropan-2-yl)-4-benzylpiperidine-2-carboxamide Dihydrochloride] |  | < 0.5 | *** (≥25 to <100-fold) | 0.5 to 2.5 | Ki ([1]; Thrombin Ki (μM)): 2.5 to 10 µM |
| 5 to 50 | N=C(N)c1ccc(CNC(=O)CNC(=O)[C@H](NCC(=O)O)C2CCCCC2)cc1 [compound 1054] |  |  |  |  |  |
|  | CC[C@H]1N[C@@H](C(=O)N[C@@H](C)C(=O)NCc2ccc(N)nc2C)C[C@@H]1Cc1ccccc1 [compound 1413, (2R,4S,5R)—N—((S)-1-(((6-Amino-2-methylpyridin-3-yl)methyl)amino)-1-oxopropan-2-yl)-4-benzyl-5-ethylpyrrolidine-2-carboxamide Di-trifluoroacetate salt] | > 25 |  | *** (≥25 to <100-fold) | 2.5 to 10 | Ki [3]: 0.5 to 2.5 µM |
|  | Cc1cccc(C[C@@H]2CN[C@@H](C(=O)N[C@@H](C)C(=O)NCc3cc(Cl)cc(C)c3O)C2)c1 [compound 1369, (2R,4S)—N—((S)-1-((5-Chloro-2-hydroxy-3-methylbenzyl)amino)-1-oxopropan-2-yl)-4-(3-methylbenzyl)pyrrolidine-2-carboxamide Hydrochloride] | > 25 | < 0.5 | **** (≥100-fold) | < 0.5 |  |
|  | C[C@H](NC(=O)[C@H]1C[C@H](c2ccccc2)CN1)C(=O)NCc1ccc(C(N)=O)nc1 [compound 1273, 5-(((S)-2-((2R,4R)-4-Phenylpyrrolidine-2-carboxamido)propanamido)methyl)picolinamide] | > 25 |  |  | 10 to 25 | Ki [3]: 10 to 25 µM |
|  | Cc1nc(N)ccc1CNC(=O)[C@H](C)NC(=O)[C@@H](CCc1ccccc1)NCCCc1cccc(O)c1 [compound 1319, (R)—N—((S)-1-(((6-Amino-2-methylpyridin-3-yl)methyl)amino)-1-oxopropan-2-yl)-2-((3-(3-hydroxyphenyl)propyl)amino)-4-phenylbutanamide Dihydrochloride salt] |  | < 0.5 | ** (≥5.0 to <25-fold) | 10 to 25 | Ki ([1]; Thrombin Ki (μM)): 2.5 to 10 µM |
|  | C[C@H](NC(=O)[C@H]1C[C@H](c2ccccc2)CN1)C(=O)NCc1ccc2nccn2c1 [compound 1434, (2R,4R)—N—((S)-1-((Imidazo[1,2-a]pyridin-6-ylmethyl)amino)-1-oxopropan-2-yl)-4-phenylpyrrolidine-2-carboxamide Dihydrochloride] | > 25 |  |  | 10 to 25 | Ki [3]: 10 to 25 µM |
|  | C[C@H](NC(=O)[C@H]1C[C@H](Cc2ccc(-c3cccnc3)cc2)CN1)C(=O)NCc1cc(Cl)ccc1-n1cnnn1 [compound 1404, (2R,4S)—N—((S)-1-((5-Chloro-2-(1H-tetrazol-1-yl)benzyl)amino)-1-oxopropan-2-yl)-4-(4-(pyridin-3-yl)benzyl)pyrrolidine-2-carboxamide Hydrochloride] | < 0.5 | < 0.5 | ** (≥5.0 to <25-fold) | < 0.5 |  |
|  | COc1ccccc1CC[C@@H](N)C(=O)N[C@@H](C)C(=O)NCc1ccc(C(=N)N)cc1 [compound 1074] | < 0.5 | < 0.5 |  | < 0.5 | MASP-2 vs. thrombin selectivity ([3]; MASP-2 inhibition versus thrombin): ** (5.0 to 25-fold) |
|  | Cc1nc(N)ccc1CNC(=O)[C@H](C)NC(=O)[C@H]1C[C@H](Cc2ccc3nonc3c2)CN1 [compound 1470, (2R,4S)—N—((S)-1-(((6-Amino-2-methylpyridin-3-yl)methyl)amino)-1-oxopropan-2-yl)-4-(benzo[c][1,2,5]oxadiazol-5-ylmethyl)pyrrolidine-2-carboxamide Di-trifluoroacetate salt] |  | < 0.5 | **** (≥100-fold) | < 0.5 | Ki ([1]; Thrombin Ki (μM)): 2.5 to 10 µM |
|  | C[C@H](NC(=O)[C@H]1C[C@H](c2ccccc2)CN1)C(=O)NCc1cc(Cl)cnc1N [compound 1358, (2R,4R)—N—((S)-1-(((2-Amino-5-chloropyridin-3-yl)methyl)amino)-1-oxopropan-2-yl)-4-phenylpyrrolidine-2-carboxamide Di-trifluoroacetate salt] | > 25 |  |  | > 25 | Ki [3]: 0.5 to 2.5 µM |
|  | Cc1cc(Cl)cc(CNC(=O)[C@H](C)NC(=O)[C@H](N)CCc2ccccc2)c1O [compound 1299, (R)-2-Amino-N—((S)-1-((5-chloro-2-hydroxy-3-methylbenzyl)amino)-1-oxopropan-2-yl)-4-phenylbutanamide Hydrochloride] | > 25 | < 0.5 | **** (≥100-fold) | 10 to 25 |  |
|  | C[C@H](NC(=O)[C@H]1C[C@H](c2ccccc2)CN1)C(=O)NCc1cc(Cl)ccc1-n1ncnn1 [compound 1394, (2R,4R)—N—((S)-1-((5-chloro-2-(2H-tetrazol-2-yl)benzyl)amino)-1-oxopropan-2-yl)-4-phenylpyrrolidine-2-carboxamide Trifluoroacetate] |  |  | * (≥1.0 to <5.0-fold) | > 25 | Ki [3]: 2.5 to 10 µM; Ki ([1]; Thrombin Ki (μM)): 10 to 25 µM |
|  | Cc1nc(N)ccc1CNC(=O)[C@H](C)NC(=O)[C@H](N)CCc1ccccc1 [compound 1245, (R)-2-Amino-N—((S)-1-(((6-amino-2-methylpyridin-3-yl)methyl)amino)-1-oxopropan-2-yl)-4-phenylbutanamide] |  | < 0.5 | **** (≥100-fold) | 10 to 25 | Ki ([1]; Thrombin Ki (μM)): 10 to 25 µM |
|  | Cc1cccc([C@@H]2CCN[C@@H](C(=O)N[C@@H](C)C(=O)NCc3ccc(C(=N)N)cc3)C2)c1 [compound 1241, (2R,4R)—N—((S)-1-((4-Carbamimidoylbenzyl)amino)-1-oxopropan-2-yl)-4-(m-tolyl)piperidine-2-carboxamide] | < 0.5 | < 0.5 | * (≥1.0 to <5.0-fold) | < 0.5 |  |
| 0.5 to 5 | C[C@H](NC(=O)[C@H](NCC(=O)O)C1Cc2ccccc2C1)C(=O)NCc1ccc(C(=N)N)cc1 [compound 1123] |  |  |  |  |  |

| Structure (SMILES) | IC50 [2] [µM] | Ki ([1]; read-out: Thrombin Ki) [µM] | Ki ([3]; read-out: MASP-2 Ki) [µM] | MASP-2 vs. thrombin selectivity [3, 5] | Ki ([4]; read-out: mMASP-2 Ki) [µM] | also measured |
| --- | --- | --- | --- | --- | --- | --- |
| Cc1nc(N)ccc1CNC(=O)[C@H](C)NC(=O)[C@H]1C[C@H](Cc2cccc3cnccc23)CN1 [compound 1343, (2R,4S)—N—((S)-1-(((6-Amino-2-methylpyridin-3-yl)methyl)amino)-1-oxopropan-2-yl)-4-(isoquinolin-5-ylmethyl)pyrrolidine-2-carboxamide Di-trifluoroacetate salt] | 0.05 to 0.5 |  |  |  |  |  |
| C[C@H](NC(=O)[C@@H](CCc1ccccc1)NCCCc1ccc(O)cc1)C(=O)NCc1ccc(C(=N)N)cc1 [compound 1145] | 0.05 to 0.5 |  | < 0.5 |  |  |  |
| CCNC(=O)COc1ccc(Cl)cc1CNC(=O)[C@H](C)NC(=O)[C@H](N)CCc1ccccc1 [compound 1137, (R)-2-Amino-N—((S)-1-((5-chloro-2-(2-(ethylamino)-2-oxoethoxy)benzyl)amino)-1-oxopropan-2-yl)-4-phenylbutanamide] | > 50 |  |  |  |  |  |
| Cc1cccc(C2CCNC(C(=O)N[C@@H](C)C(=O)NCc3ccc(C(=N)N)cc3)C2)c1 (stereo partly drawn) [compound 1098] | < 0.05 |  | < 0.5 |  |  |  |
| C[C@H](NC(=O)[C@H]1C[C@@H](c2ccccc2)CCN1)C(=O)NCc1cc(Cl)ccc1O [compound 1078] | 0.5 to 5 |  | < 0.5 |  |  |  |
